# Source: ChEMBL document CHEMBL1255477, “In vitro properties of BAL30072, a novel siderophore sulfactam with activity against multiresistant gram-negative bacilli” (Antimicrob Agents Chemother, 2010)
# Values joined by “and” are separate entries in the source; they are usually repeats but may differ in a detail not shown here. Equal values may be shown once. Active and inactive are the calls of the source. The rule behind the calls is not given here.
# Columns and labels:
# [1] = system: Klebsiella aerogenes; assay: Antimicrobial activity against Enterobacter aerogenes by broth dilution method; format: functional
# [2] = system: Citrobacter freundii; assay: Antimicrobial activity against Citrobacter freundii by broth dilution method; format: functional
# [3] = system: Proteus vulgaris; assay: Antimicrobial activity against Proteus vulgaris by broth dilution method; format: functional
# [4] = system: Providencia rettgeri; assay: Antimicrobial activity against Providencia rettgeri by broth dilution method; format: functional
# [5] = system: Enterobacter cloacae; assay: Antimicrobial activity against Enterobacter cloacae by broth dilution method; format: functional
# [6] = system: Escherichia coli; assay: Antimicrobial activity against Escherichia coli by broth dilution method; format: functional
# [7] = system: Klebsiella oxytoca; assay: Antimicrobial activity against Klebsiella oxytoca by broth dilution method; format: functional
# [8] = system: Klebsiella pneumoniae; assay: Antimicrobial activity against Klebsiella pneumoniae by broth dilution method; format: functional
# [9] = system: Proteus penneri; assay: Antimicrobial activity against Proteus penneri by broth dilution method; format: functional
# [10] = system: Serratia marcescens; assay: Antimicrobial activity against Serratia marcescens by broth dilution method; format: functional
# [11] = system: Acinetobacter sp.; assay: Antimicrobial activity against Acinetobacter sp. by broth dilution method; format: functional
# [12] = system: Burkholderia sp.; assay: Antimicrobial activity against Burkholderia sp. by broth dilution method; format: functional
# [13] = system: Pseudomonas aeruginosa; assay: Antimicrobial activity against Pseudomonas aeruginosa by broth dilution method; format: functional
# [14] = system: Escherichia coli; assay: Antimicrobial activity against Escherichia coli K802N harboring beta-lactamase TEM-3 by broth dilution method; format: functional
# [15] = system: Escherichia coli; assay: Antimicrobial activity against Escherichia coli CF102 harboring beta-lactamase TEM-3 by broth dilution method; format: functional
# [16] = system: Klebsiella pneumoniae; assay: Antimicrobial activity against Klebsiella pneumoniae 1357E harboring beta-lactamase TEM-10 by broth dilution method; format: functional
# [17] = system: Klebsiella pneumoniae; assay: Antimicrobial activity against Klebsiella pneumoniae 26768WU harboring beta-lactamase SHV-5 by broth dilution method; format: functional
# [18] = system: Pseudomonas aeruginosa; assay: Antimicrobial activity against Pseudomonas aeruginosa 1973E harboring beta-lactamase PSE-1 and class C enzymes by broth dilution method; format: functional
# [19] = system: Pseudomonas aeruginosa; assay: Antimicrobial activity against Pseudomonas aeruginosa 1937E harboring beta-lactamase PSE-4 and class C enzymes by broth dilution method; format: functional
# [20] = system: Escherichia coli; assay: Antimicrobial activity against Escherichia coli nmcA harboring beta-lactamase NMCA by broth dilution method; format: functional
# [21] = system: Klebsiella pneumoniae; assay: Antimicrobial activity against Klebsiella pneumoniae YC harboring beta-lactamase KPC-2,TEM-1and SHV-2 by broth dilution method; format: functional
# [22] = system: Acinetobacter baumannii; assay: Antimicrobial activity against Acinetobacter baumannii HPA74510 harboring beta-lactamase IMP-4 by broth dilution method; format: functional
# [23] = system: Pseudomonas aeruginosa; assay: Antimicrobial activity against Pseudomonas aeruginosa HPA10586 harboring beta-lactamase VIM-1 by broth dilution method; format: functional
# [24] = system: Pseudomonas aeruginosa; assay: Antimicrobial activity against Pseudomonas aeruginosa HPA996 harboring beta-lactamase VIM-2 by broth dilution method; format: functional
# [25] = system: Providencia rettgeri; assay: Antimicrobial activity against Providencia rettgeri J96 harboring beta-lactamase IMP-1 by broth dilution method; format: functional
# [26] = system: Stenotrophomonas maltophilia; assay: Antimicrobial activity against Stenotrophomonas maltophilia B715 harboring beta-lactamase L1and L2 by broth dilution method; format: functional
# [27] = system: Enterobacter cloacae; assay: Antimicrobial activity against Enterobacter cloacae 908R harboring beta-lactamase AmpC by broth dilution method; format: functional
# [28] = system: Escherichia coli; assay: Antimicrobial activity against Escherichia coli Libyien harboring beta-lactamase CMY-2 by broth dilution method; format: functional
# [29] = system: Acinetobacter baumannii; assay: Antimicrobial activity against Acinetobacter baumannii HPA I-16 harboring beta-lactamase OXA-27 by broth dilution method; format: functional
# [30] = system: Pseudomonas aeruginosa; assay: Antimicrobial activity against Pseudomonas aeruginosa B4 by broth dilution method; format: functional
# [31] = system: Pseudomonas aeruginosa; assay: Antimicrobial activity against mexAB-oprM protein and mexCD-oprJ deficient Pseudomonas aeruginosa PAO253 overexpressing MexEF-OprN gene by broth dilution method; format: functional
# [32] = system: Pseudomonas aeruginosa; assay: Antimicrobial activity against fpvA, fpvB, fptA and pirA gene deficient Pseudomonas aeruginosa 860 by broth dilution method; format: functional
# [33] = system: Pseudomonas aeruginosa; assay: Antimicrobial activity against pfeA deficient Pseudomonas aeruginosa 134 by broth dilution method; format: functional
# [34] = system: Pseudomonas aeruginosa; assay: Antimicrobial activity against Pseudomonas aeruginosa BA(C2-107) selected after 25 ug/ml of compound exposure by broth dilution method; format: functional
# [35] = system: Pseudomonas aeruginosa; assay: Antimicrobial activity against Pseudomonas aeruginosa BA(C1-106) selected after 25 ug/ml of compound exposure by broth dilution method; format: functional
# [36] = system: Pseudomonas aeruginosa; assay: Antimicrobial activity against Pseudomonas aeruginosa BA by broth dilution method; format: functional
# [37] = system: Enterobacter cloacae; assay: Antimicrobial activity against Enterobacter cloacae S4741B assessed as appearance of colony at 4 times MIC concentration; format: functional
# [38] = system: Enterobacter cloacae; assay: Antimicrobial activity against Enterobacter cloacae S9369 assessed as appearance of colony at 4 times MIC concentration; format: functional, organism-based
# [39] = system: Escherichia coli; assay: Antimicrobial activity against Escherichia coli W3110 assessed as appearance of colony at 4 times MIC concentration; format: functional, organism-based
# [40] = system: Pseudomonas aeruginosa; assay: Antimicrobial activity against Pseudomonas aeruginosa BA assessed as appearance of colony at 4 times MIC concentration; format: functional
# [41] = system: Pseudomonas aeruginosa; assay: Antimicrobial activity against Pseudomonas aeruginosa 621 assessed as appearance of colony at 4 times MIC concentration; format: functional
# [42] = system: Acinetobacter baumannii; assay: Antimicrobial activity against Acinetobacter baumannii HPA74510 assessed as number of passages required for MIC to rise above 4 times original MIC; format: functional
# [43] = system: Acinetobacter junii; assay: Antimicrobial activity against Acinetobacter junii 15218 assessed as number of passages required for MIC to rise above 4 times original MIC; format: functional
# [44] = system: Enterobacter cloacae; assay: Antimicrobial activity against Enterobacter cloacae S9369 assessed as number of passages required for MIC to rise above 4 times original MIC; format: functional
# [45] = system: Klebsiella pneumoniae; assay: Antimicrobial activity against Klebsiella pneumoniae 1338665 assessed as number of passages required for MIC to rise above 4 times original MIC; format: functional
# [46] = system: Pseudomonas aeruginosa; assay: Antimicrobial activity against Pseudomonas aeruginosa BA assessed as number of passages required for MIC to rise above 4 times original MIC; format: functional
# [47] = system: Pseudomonas aeruginosa; assay: Antimicrobial activity against Pseudomonas aeruginosa 527 assessed as number of passages required for MIC to rise above 4 times original MIC; format: functional
# [48] = system: Stenotrophomonas maltophilia; assay: Antimicrobial activity against Stenotrophomonas maltophilia 1AC736 assessed as number of passages required for MIC to rise above 4 times original MIC; format: functional
# [49] = system: Serratia marcescens; assay: Antimicrobial activity against Serratia marcescens 1T9 harboring beta-lactamase Class C by broth dilution method; format: functional
# [50] = system: Acinetobacter baumannii; assay: Antimicrobial activity against Acinetobacter baumannii HPA 327009 harboring beta-lactamase OXA-25 by broth dilution method; format: functional
# [51] = system: Pseudomonas aeruginosa; assay: microbe, parasite or virus in culture; settings: BA
# Description: Antimicrobial activity against Pseudomonas aeruginosa BA harboring beta-lactamase Class C by broth dilution method
# [52] = system: Pseudomonas aeruginosa; assay: microbe, parasite or virus in culture; settings: 18S/H
# Description: Antimicrobial activity against Pseudomonas aeruginosa 18S/H harboring beta-lactamase Class C by broth dilution method
# [53] = Pseudomonas aeruginosa, BA, read-out: MIC
smiles,measurement,setting,value
C[C@@H](O)[C@H]1C(=O)N2C(C(=O)O)=C(S[C@@H]3CN[C@H](C(=O)N(C)C)C3)[C@H](C)[C@H]12 [MEROPENEM],MIC50,[1],0.25 µg/mL
same,MIC90,[1],4 µg/mL
same,MIC,[2],≤ 0.06 µg/mL
same,MIC50,[2],≤ 0.06 µg/mL
same,MIC90,[2],0.25 µg/mL
same,MIC50,[3],0.125 µg/mL
same,MIC90,[3],0.5 µg/mL
same,MIC50,[4],0.25 µg/mL
same,MIC90,[4],> 32 µg/mL
same,MIC,[5],≤ 0.06 µg/mL
same,MIC50,[5],≤ 0.06 µg/mL
same,MIC90,[5],0.25 µg/mL
same,MIC50,[6],≤ 0.06 µg/mL
same,MIC90,[6],0.5 µg/mL
same,MIC50,[7],≤ 0.06 µg/mL
same,MIC90,[7],1 µg/mL
same,MIC50,[8],≤ 0.06 µg/mL
same,MIC90,[8],16 µg/mL
same,MIC50,[9],0.125 µg/mL
same,MIC90,[9],0.5 µg/mL
same,MIC50,[10],0.125 µg/mL
same,MIC90,[10],4 µg/mL
same,MIC50,[11],1 µg/mL
same,MIC90,[11],> 32 µg/mL
same,MIC50,[12],2 µg/mL
same,MIC90,[12],4 µg/mL
same,MIC50,[13],4 µg/mL
same,MIC90,[13],> 32 µg/mL
same,MIC,[14],16 µg/mL
same,MIC,[15],≤ 0.06 µg/mL
same,MIC,[16],≤ 0.06 µg/mL
same,MIC,[17],≤ 0.06 µg/mL
same,MIC,[18],4 µg/mL
same,MIC,[19],1 µg/mL
same,MIC,[20],> 32 µg/mL
same,MIC,[21],> 32 µg/mL
same,MIC,[22],32 µg/mL
same,MIC,[23],> 32 µg/mL
same,MIC,[24],32 µg/mL
same,MIC,[25],> 32 µg/mL
same,MIC,[26],> 32 µg/mL
same,MIC,[27],0.125 µg/mL
same,MIC,[28],0.125 µg/mL
same,MIC,[29],> 32 µg/mL
same,MIC,[30],≤ 0.06 µg/mL
same,MIC,[31],0.5 µg/mL
same,MIC,[32],1 µg/mL
same,MIC,[33],1 µg/mL
same,MIC,[34],2 µg/mL
same,MIC,[35],1 µg/mL
same,MIC,[36],1 µg/mL
same,MIC,[36]; [53],1 µg/mL
same,Activity,[37],Active
same,Activity,[38],Active
same,Activity,[39],Active
same,Activity,[40],1 frequency
same,Activity,[41],1 frequency
same,Activity,[42],inactive
same,Activity,[43],9 passages
same,Activity,[44],9 passages
same,Activity,[45],inactive
same,Activity,[46],3 passages
same,Activity,[47],3 passages
same,Activity,[48],inactive
same,MIC,[49],0.125 µg/mL
same,MIC,[50],> 32 µg/mL
same,MIC,[51],1 µg/mL
same,MIC,[52],2 µg/mL
CC1(C)[C@H](NC(=O)/C(=N\OCc2cc(=O)c(O)cn2O)c2csc(N)n2)C(=O)N1OS(=O)(=O)O (stereo in doubt),MIC50,[1],0.5 µg/mL
same,MIC90,[1],16 µg/mL
same,MIC50,[2],4 µg/mL
same,MIC90,[2],16 µg/mL
same,MIC,[3],≤ 0.06 µg/mL
same,MIC50,[3],≤ 0.06 µg/mL
same,MIC90,[3],0.25 µg/mL
same,MIC,[4],≤ 0.06 µg/mL
same,MIC50,[4],≤ 0.06 µg/mL
same,MIC90,[4],≤ 0.06 µg/mL
same,MIC50,[5],4 µg/mL
same,MIC90,[5],> 32 µg/mL
same,MIC50,[6],1 µg/mL
same,MIC90,[6],> 32 µg/mL
same,MIC50,[7],0.125 µg/mL
same,MIC90,[7],4 µg/mL
same,MIC50,[8],16 µg/mL
same,MIC90,[8],> 32 µg/mL
same,MIC,[9],≤ 0.06 µg/mL
same,MIC50,[9],≤ 0.06 µg/mL
same,MIC90,[9],0.25 µg/mL
same,MIC50,[10],2 µg/mL
same,MIC90,[10],4 µg/mL
same,MIC50,[11],0.5 µg/mL
same,MIC90,[11],4 µg/mL
same,MIC,[12],≤ 0.06 µg/mL
same,MIC50,[12],≤ 0.06 µg/mL
same,MIC90,[12],0.125 µg/mL
same,MIC50,[13],2 µg/mL
same,MIC90,[13],8 µg/mL
same,MIC,[14],> 32 µg/mL
same,MIC,[15],4 µg/mL
same,MIC,[16],4 µg/mL
same,MIC,[17],> 32 µg/mL
same,MIC,[18],4 µg/mL
same,MIC,[19],2 µg/mL
same,MIC,[20],1 µg/mL
same,MIC,[21],> 32 µg/mL
same,MIC,[22],0.25 µg/mL
same,MIC,[23],2 µg/mL
same,MIC,[24],1 µg/mL
same,MIC,[25],0.125 µg/mL
same,MIC,[26],0.25 µg/mL
same,MIC,[27],4 µg/mL
same,MIC,[28],4 µg/mL
same,MIC,[29],0.5 µg/mL
same,MIC,[30],0.5 µg/mL
same,MIC,[31],0.5 µg/mL
same,MIC,[32],1 µg/mL
same,MIC,[33],1 µg/mL
same,MIC,[34],8 µg/mL
same,MIC,[35],16 µg/mL
same,MIC,[36]; [53],1 µg/mL
same,Activity,[37],7 frequency
same,Activity,[38],Active
same,Activity,[39],Active
same,Activity,[40],Active
same,Activity,[40]; record 2,2.1 frequency
same,Activity,[41],2.8 frequency and 2.5 frequency
same,Activity,[42],6 passages
same,Activity,[43],20 passages
same,Activity,[44],8 passages
same,Activity,[45],9 passages
same,Activity,[46],5 passages
same,Activity,[47],9 passages
same,Activity,[48],4 passages
same,MIC,[49],1 µg/mL
same,MIC,[50],4 µg/mL
same,MIC,[51],0.5 µg/mL
same,MIC,[52],2 µg/mL
